{"source": "paper PMC5054527", "about": "“Mechanism of high affinity inhibition of the human urate transporter URAT1” (Scientific Reports, 2016)", "test_in_all_cases": "URAT1 uric acid transport activity assay", "key": {"[1]": {"target": "T1, r-Y365F/M481I rURAT1 double point mutant (Rattus norvegicus, UniProt Q3ZAV1, M481I/Y365F)", "T1 construct": "hURAT1 and rURAT1 are 553 amino acid proteins with 12 transmembrane segments; expressed in transfected cells; host or cells: HEK-293T", "T1 sequence (Q3ZAV1 whole entry Y365F/M481I)": "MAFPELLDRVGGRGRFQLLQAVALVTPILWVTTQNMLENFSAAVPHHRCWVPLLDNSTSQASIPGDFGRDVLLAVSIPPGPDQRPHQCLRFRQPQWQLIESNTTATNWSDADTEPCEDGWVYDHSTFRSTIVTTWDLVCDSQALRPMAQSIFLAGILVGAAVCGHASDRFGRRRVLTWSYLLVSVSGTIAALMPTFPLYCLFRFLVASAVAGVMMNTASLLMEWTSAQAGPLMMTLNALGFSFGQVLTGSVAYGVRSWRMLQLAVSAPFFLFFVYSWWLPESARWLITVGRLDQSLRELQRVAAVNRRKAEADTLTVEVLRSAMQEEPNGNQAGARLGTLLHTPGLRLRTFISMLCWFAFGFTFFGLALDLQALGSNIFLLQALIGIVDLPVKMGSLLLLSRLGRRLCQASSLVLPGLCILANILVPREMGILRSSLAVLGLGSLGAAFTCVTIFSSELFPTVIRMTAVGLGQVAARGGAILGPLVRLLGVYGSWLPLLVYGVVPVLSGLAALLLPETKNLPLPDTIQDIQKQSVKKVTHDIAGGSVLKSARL", "assay_type": "cell-based", "procedure,_shortened": "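Readout: 14C-uric acid uptake (100 μM, 10 min) in cells transiently transfected one day earlier with mutant rURAT1. Serially diluted inhibitors were added 5 min before substrate. Triplicate points, four-parameter logistic fit for IC50.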"}, "[2]": {"target": "T2, r-h TM7 URAT1 chimera (Rattus norvegicus, UniProt Q3ZAV1, F351C/M354T/Y365F)", "T2 construct": "expressed in transfected cells; host or cells: HEK-293T", "T2 sequence (Q3ZAV1 1-553 F351C/M354T/Y365F)": "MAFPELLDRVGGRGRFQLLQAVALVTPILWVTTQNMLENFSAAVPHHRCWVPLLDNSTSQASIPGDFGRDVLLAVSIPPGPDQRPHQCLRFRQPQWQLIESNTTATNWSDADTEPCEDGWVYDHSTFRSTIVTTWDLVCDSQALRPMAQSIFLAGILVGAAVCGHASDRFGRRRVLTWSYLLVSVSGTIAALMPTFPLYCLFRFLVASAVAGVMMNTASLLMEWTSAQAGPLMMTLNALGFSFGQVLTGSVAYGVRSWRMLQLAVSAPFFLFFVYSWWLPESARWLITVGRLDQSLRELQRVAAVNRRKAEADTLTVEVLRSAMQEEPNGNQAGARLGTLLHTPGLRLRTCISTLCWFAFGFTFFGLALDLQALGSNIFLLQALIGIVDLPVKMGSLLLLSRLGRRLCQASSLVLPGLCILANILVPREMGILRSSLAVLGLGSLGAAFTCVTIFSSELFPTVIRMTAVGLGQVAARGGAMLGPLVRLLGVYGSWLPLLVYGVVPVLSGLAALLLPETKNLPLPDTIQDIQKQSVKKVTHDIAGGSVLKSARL", "assay_type": "cell-based, human/rat", "excerpt": "(§1) hURAT1 (GenBank BC053348.1) and rURAT1 (NCBI NM_001034943.1) genes were purchased from Origene Technologies, Inc. and subcloned into pCMV6/neo using NotI, creating pCMV6/neo-hURAT1 and pCMV6/neo-rURAT1. Mutants were produced by polymerase chain reaction (PCR) or site-directed mutagenesis using the QuikChange Lightning Multi Site-Directed Mutagenesis Kit (Agilent Technologies). […] Detailed methods are provided in Supplementary Methods, and primers are listed in Supplementary Table 1. […] Residues in rURAT1 and hOAT1 that correspond to the residues in hURAT1 were identified from aligned protein sequences (Supplementary Fig. 1)[50].\n(§2) DNA (10 μg) was mixed with 30 μl of DreamFect Gold (Boca Scientific) in 2 ml OptiMem (Life Technologies). After 20 minutes, 18 ml of media containing 2 × 10^7 cells in suspension was added and mixed, and 200 μl per well were plated onto white clear-bottomed poly-D-lysine coated 96-well plates (BD Biosciences). The cells were assayed the following day.\n(§3) Compounds were serially diluted into assay buffer and added to the cells for 5 minutes prior to addition of radiolabelled uric acid substrate. URAT1-expressing cells were incubated with 100 μM ^14C-uric acid for 10 minutes. […] Each treatment was measured in triplicate.\n(§4) Unlabelled uric acid was prepared at a 20 mM stock just prior to use in a solution containing 20 mM dibasic potassium phosphate and 20 mM potassium hydroxide.\n(§5) Nonlinear regression analyses using GraphPad Prism software were used to calculate the potency of URAT1 inhibitors (IC50 values) from log (inhibitor) versus response - variable slope (four parameters) equations. Statistical significance was assessed using Student’s unpaired t-tests."}, "[3]": {"target": "T3, r-h TM11 URAT1 chimera (Rattus norvegicus, UniProt Q3ZAV1, M481I/V474M)", "T3 sequence (Q3ZAV1 1-553 V474M/M481I)": "T2 sequence (Q3ZAV1 1-553 F351C/M354T/Y365F) with C351F, T354M, F365Y, V474M, M481I", "assay_type": "cell-based, human/rat", "excerpt": "as §1, §2, §3, §4, §5"}, "[4]": {"target": "T4, r-h TM1-N URAT1 chimera (Rattus norvegicus, UniProt Q3ZAV1, A21T/L18V/T26V/V22M/V25M)", "T4 sequence (Q3ZAV1 1-553 L18V/A21T/V22M/V25M/T26V)": "T2 sequence (Q3ZAV1 1-553 F351C/M354T/Y365F) with L18V, A21T, V22M, V25M, T26V, C351F, T354M, F365Y", "assay_type": "cell-based, human/rat", "excerpt": "as §1, §2, §3, §4, §5"}}, "note": "Numbering of substitutions follows the chain as printed. Like-named read-outs stand apart in the source and are kept apart here."}
{"smiles": "CCc1oc2ccccc2c1C(=O)c1cc(Br)c(O)c(Br)c1", "note": "[benzbromarone]", "values": [{"measurement": "IC50", "setting": "[1]", "value": "3.5 ± 0.39", "unit": "µM"}, {"measurement": "IC50", "setting": "[2]", "value": "5.7 ± 0.25", "unit": "µM"}, {"measurement": "IC50", "setting": "[3]", "value": "12 ± 0.48", "unit": "µM"}, {"measurement": "IC50", "setting": "[4]", "value": "16 ± 0.76", "unit": "µM"}]}
{"smiles": "O=C(O)CSc1nnc(Br)n1-c1ccc(C2CC2)c2ccccc12", "note": "[lesinurad, 2-((5-bromo-4-(4-cyclopropylnaphthalen-1-yl)-4H-1,2,4-triazol-3-yl)thio)acetic acid]", "values": [{"measurement": "IC50", "setting": "[2]; r-h TM7, MES pH 5.5, 100 μM 14C-uric acid, read-out: IC50 (uric acid transport)", "value": "6.9 ± 0.99", "unit": "µM"}, {"measurement": "IC50", "setting": "[3]; r-h TM11, MES pH 5.5, 100 μM 14C-uric acid, read-out: IC50 (uric acid transport)", "value": "62 ± 3.6", "unit": "µM"}, {"measurement": "IC50", "setting": "[4]; r-h TM1-N, MES pH 5.5, 100 μM 14C-uric acid, read-out: IC50 (uric acid transport)", "value": "40 ± 7", "unit": "µM"}]}
{"smiles": "O=C1C(CC[S+]([O-])c2ccccc2)C(=O)N(c2ccccc2)N1c1ccccc1", "note": "(centres unmarked) [sulfinpyrazone]", "values": [{"measurement": "IC50", "setting": "[1]; r-Y365F/M481I, HEPES pH 7.3, 100 μM 14C-uric acid, read-out: IC50 (uric acid transport)", "value": "138 ± 25", "unit": "µM"}, {"measurement": "IC50", "setting": "[2]; r-h TM7, HEPES pH 7.3, 100 μM 14C-uric acid, read-out: IC50 (uric acid transport)", "value": "243 ± 22", "unit": "µM"}, {"measurement": "IC50", "setting": "[3]; r-h TM11, HEPES pH 7.3, 100 μM 14C-uric acid, read-out: IC50 (uric acid transport)", "value": "342 ± 32", "unit": "µM"}, {"measurement": "IC50", "setting": "[4]; r-h TM1-N, HEPES pH 7.3, 100 μM 14C-uric acid, read-out: IC50 (uric acid transport)", "value": "12 ± 2.6", "unit": "µM"}]}
